These results are taken from US11969402B2, “Compositions and methods for skin rejuvenation” (THE JOHNS HOPKINS UNIVERSITY, priority 2019, dated 2024).

Experiment [1] concerns Wound Induced Hair Neogenesis (WIHN). The experiment is described as follows: Wound Induced Hair Neogenesis (WIHN), regenerated hair follicles counted by CSLM. Type of experiment: in vivo, mouse. On the procedure:
(§1) Wound Induced Hair Neogenesis (WIHN). All experiments were followed with the present inventors' WIHN protocol^1,9. Briefly, hair was shaved and a 1.2 cm^2 full-thickness skin on the backs of 21-day old (telogen) male and female mice was removed by sterile scissors. A single treatment of RA (30 μl) (0.1 μg per mouse) (Millipore Sigma, R2625) and BMS493 (30 μl) (0.1 μg per mouse) (Cayman Chemical, #17418) was applied topically onto open wound on WD1 of Tlr3^−/− and WT mice, respectively. Poly (I:C) (50 μl) (5 μg per mouse) (Invivogen, tlrl-pic) was injected under the healed scab on WD3 of WT mice as described before^9,34. On WD20-24, numbers of regenerated hair follicles were visualized and quantified in the re-epithelialized skin by non-invasive confocal scanning laser microscopy (CSLM) (Caliber I.D., VIVASCOPE 1500) as published^1,9. As a vehicle (Control), ethanol (EtOH), dimethylsulfoxide (DMSO), or PBS was treated for RA, BMS493, and Poly (I:C), respectively.

The test system of experiment [2] is human scalp keratinocytes. Kind of experiment: Western blot / immunostaining of ALDH1A3, KRT15, KRT19 in human keratinocytes. The experiment is classed as cell-based. The settings on record: for ALDH1A3 protein: human keratinocytes, western blot. On the procedure: BMS493 treatment. BMS493 pan-RARs antagonist (1 μM) was pre-treated into keratinocytes for an hour and cells were incubated with RA (0.1 μM and 0.5 μM for human and mouse keratinocytes, respectively) or Poly (I:C) (0.1 μg per ml for both human and mouse keratinocytes) for 48 hrs. At the end of the experiment, cells were harvested for RNA and protein extraction to do further analysis including qRT-PCR and western blot.
Western blot analysis. Human and mouse keratinocytes were disrupted in M-PER lysis buffer (Thermo Fisher Scientific, #78501) containing protease inhibitors (Thermo Fisher Scientific, #87786) using ultrasonic homogenizer (20% power with 5 times every 2 seconds) to extract proteins. Then, protein concentrations were determined by BCA method (Thermo Fisher Scientific, #23225). Western blot procedures were followed by the protocol of NuPAGE system (Thermo Fisher Scientific). Briefly, 20 μg of protein samples were loaded for electrophoresis and transferred to polyvinylidene di-fluoride (PVDF) membrane (Bio-Rad, Hercules, CA). After blocking for at least an hour in 5% non-fat dry milk, the membrane was incubated with primary antibodies with appropriate dilutions (Table 2) at 4° C. overnight and followed by incubation with secondary antibodies for 1 hour at room temperature. Protein amounts were normalized to rabbit polyclonal anti-human β-actin antibody (1:1,000 dilution) (Cell Signaling Technology). Finally, proteins were visualized using SuperSignal West Pico PLUS chemiluminescent substrate kit (Thermo Fisher Scientific, #34577) and saved as image files using ChemiDoc XRS^+ (Bio-Rad). The signal intensity of protein was quantified using Image Lab software (Bio-Rad). Original images of representative blots were provided in the Source data file.
Immunofluorescence. For tissues, frozen-sections of mouse skin samples were stained with primary antibodies with appropriate dilution at 4° C. overnight, followed by incubation with goat anti-rabbit IgG labeled with Alexa Flour® 488 (Life Technologies) and 594 (Life Technologies) for 1 hour at room temperature. For cells, keratinocytes (3×10^5 cells) plated on cover-slip were fixed with 4% Paraformaldehyde (PFA) for 10 min, permeabilized in PBS including 0.5% Triton X-100 for 15 min at room temperature. After washing with PBS 3 times, cells were stained with primary antibodies overnight at 4° C., followed by incubation with goat anti-rabbit or mouse IgG labeled with Alexa Flour® 488 for 1 hour at room temperature. Cell nuclei were visualized by mounting medium including DAPI (Vector Laboratories, Burlingame, CA, H-1200). Fluorescence images were observed by fluorescence microscopy (Leica microsystems), taken pictures with ×100 (low magnification) and ×200 (high magnification), and saved as image files.
In general terms: Immunoblotting shows a protein as a band on a membrane.

In another experiment the test system is wounded skin. Kind of experiment: Retinoid levels in mouse skin (LC-MS/MS, HPLC-UV). Type of experiment: in vivo. Particulars: for ROL and RE in wounded skin: WT and Tlr3−/− mice. On the procedure: as §1
Tissue preparation from wounded mice. Wild type (C57BL/6J and 6NJ) and Tlr3^−/− mice were wounded as did in WIHN experiments. On PWD11 when wounds are closed, the center and edge of the wound was separated by scissors. Skin samples were immediately frozen and saved in liquid nitrogen for further analysis.
Determination of Retinoid Levels. For in vitro samples, human scalp keratinocytes were incubated with 0.5 μg per ml of Poly (I:C) for 48 hrs or siRNAs-transfected cells were incubated with 0.1 μg per ml of Poly (I:C) for 48 hrs. For in vivo samples, skin was analyzed from wild-type and Tlr3^−/− unwounded and wounded skin where wound regions (center and edge area) were cut by scalpel. Human skin was analyzed for retinoids with and without CO2 laser treatment as described. All samples were frozen at collection and stored at −80° C. until extraction. For in vitro experiments, media and cell pellets were analyzed separately. For in vivo experiments, tissues were homogenized in saline. Extraction of retinoids was performed under yellow lights using a two-step liquid-liquid extraction that has been described in detail previously using 4,4-dimethyl-RA as an internal standard for RA and retinyl acetate as an internal standard for retinol and total retinyl ester^43-46. For the extraction of retinoids, 1 to 3 ml of 0.025 M KOH in ethanol was added to tissue homogenates (in vivo) or cell culture (in vitro) samples. Then 10 ml hexane (for in vivo tissue sample) or 5 ml hexane (for in vitro cell culture sample) was added to the aqueous ethanol phase. The samples were vortexed and centrifuged for 1 to 3 min at 1000 rpm in a Dynac centrifuge (Becton Dickinson) to facilitate phase separation and pellet precipitated protein. The hexane (top) phase containing nonpolar retinoids (ROL and RE) was removed. 4 M HCl (60-180 μl) was added to the remaining aqueous ethanol phase, samples were vortexed, and then polar retinoids (RA) were removed by extraction with a second 5-10 ml aliquot of hexane as described above. Organic hexane phases were evaporated under nitrogen while heating at approximately 25 to 30° C. in a water bath (model N-EVAP 112, Organomation Associates, Berlin, MA, USA). All samples were resuspended in 60 μl acetonitrile. Only glass containers, pipettes, and syringes were used to handle retinoids.
Levels of RA were determined by liquid chromatography-multistage tandem mass spectrometry (LC-MRM^3) which is an LC-MS/MS method utilizing two distinct fragmentation events for enhanced selectivity^43. RA was measured using a Shimadzu Prominence UFLC XR liquid chromatography system (Shimadzu, Columbia, MD) coupled to an AB Sciex 5500 or 6500+ QTRAP hybrid triple quadrupole mass spectrometer (AB Sciex, Framingham, MA) using atmospheric pressure chemical ionization (APCI) operated in positive ion mode as previously described^43. […]

`CC1=C(/C=C/C(C)=C/C=C/C(C)=C/C(=O)O)C(C)(C)CCC1` [RA, all-trans-retinoic acid]: in experiment [1] (Tlr3−/− mice, topical 0.1 μg per mouse on WD1), the “hair follicle regeneration (WIHN)” value was “modestly increased”. For the same compound, the WIHN result in experiment [1] (WT mice, supraphysiologic doses of RA) is on record as “do not modify”. Also, in experiment [2], the ALDH1A3 protein result is listed as “robustly increased”. In addition, the “tissue RA levels prior to morphogenesis” value in the experiment with wounded skin (Tlr3−/− mice, exogenous RA) is “measurable increases”. In addition, the “ROL and RE in wounded skin” value in the experiment with wounded skin (RA vs ethanol) is “not significant”.
With “Polyinosinic-polycytidylic acid [Poly (I:C)]”, the “hair follicle regeneration (WIHN)” value in experiment [1] (MDA5−/− mice, similar to WT) is on record as “induces hair follicle regeneration”. In addition, the “new hair follicle formation (WIHN)” value in experiment [1] (WT mice, single injection 5 μg per mouse on WD3) is “stimulates new hair follicle formation”. For the same compound, in experiment [2] (human keratinocytes following Poly (I:C) stimulation), the “ALDH1A3, KRT15 and KRT19 protein expression” value was “upregulated”. Also, the ALDH1A3 protein entry in experiment [2] is “robustly increased”. The “amount of RA during wound healing” value in the experiment with wounded skin (Tlr3−/− mice) was “much less so”; in the experiment with wounded skin (WT mice), “substantially increased”. In the experiment with wounded skin (Poly (I:C) vs PBS), the “ROL and RE in wounded skin” value is on record as “not significant”. For the same compound, the “RA in center of the wound before morphogenesis” value in the experiment with wounded skin (wild type mice, PWD11, center vs edge, not in Tlr3−/− mice) was “accumulates more RA”.
